Measurements: ChEMBL document CHEMBL4304824, “Austalides V and W, new meroterpenoids from the fungus Aspergillus ustus and their antitumor activities” (Bioorg Med Chem Lett, 2019)
Activity calls are given as the source filed them. No cut-off for these calls is given here.

Legend:
[1] = system: LNCaP; assay: Cytotoxicity against human LNCAP cells assessed as reduction in cell viability incubated for 48 hrs by xCELLigence RTCA analysis; format: functional, cell-based
[2] = system: T-24; assay: Cytotoxicity against human T24 cells assessed as reduction in cell viability incubated for 48 hrs by xCELLigence RTCA analysis; format: functional, cell-based; details: T-24, 48 h
[3] = system: DU-145; assay: Cytotoxicity against human DU145 cells assessed as reduction in cell viability incubated for 48 hrs by xCELLigence RTCA analysis; format: functional, cell-based; details: DU-145, 48 h
[4] = system: LNCaP; assay: Cytotoxicity against human LNCAP cells assessed as reduction in cell viability incubated for 12 hrs by xCELLigence RTCA analysis; format: functional, cell-based
[5] = system: LNCaP; assay: Inhibition of cell migration of human LNCAP cells at 8.9 uM measured every 10 mins for 24 hrs by xCELLigence RTCA analysis; format: functional, cell-based
[6] = system: LNCaP; assay: Antiproliferation activity against human LNCAP cells assessed as reduction in cell density incubated for 72 hrs by microscopic method; format: functional, cell-based
[7] = system: LNCaP; assay: Cytotoxicity against human LNCAP cells assessed as reduction in cell viability measured after 25 hrs by xCELLigence RTCA analysis; format: functional, cell-based
[8] = system: LNCaP; assay: Inhibition of cell migration of human LNCAP cells at 8.8 uM measured every 10 mins for 24 hrs by xCELLigence RTCA analysis; format: functional, cell-based
[9] = system: LNCaP; assay: Inhibition of Akt/mTOR pathway in human LNCAP cells assessed as reduction in mTOR phosphorylation at […] residue at 50 uM incubated for 48 hrs by chemiluminescence reagent based autoradiography; format: cell-based
[10] = system: LNCaP; assay: Inhibition of Akt/mTOR pathway in human LNCAP cells assessed as reduction in AKT1 phosphorylation at S473/T308 residues at 50 uM incubated for 48 hrs by chemiluminescence reagent based autoradiography; format: cell-based
[11] = system: LNCaP; assay: Inhibition of Akt/mTOR pathway in human LNCAP cells assessed as reduction in AKT2 phosphorylation at S473/T308 residues at 50 uM incubated for 48 hrs by chemiluminescence reagent based autoradiography; format: cell-based
[12] = system: LNCaP; assay: Inhibition of Akt/mTOR pathway in human LNCAP cells assessed as reduction in AKT3 phosphorylation at S473/T308 residues at 50 uM incubated for 48 hrs by chemiluminescence reagent based autoradiography; format: cell-based
[13] = target: Focal adhesion kinase 1 (Homo sapiens) (UniProt Q05397); assay: Inhibition of FAK phosphorylation at Y397 residue in human LNCAP cells at 50 uM incubated for 48 hrs by chemiluminescence reagent based autoradiography; format: cell-based
Focal adhesion kinase 1 (Homo sapiens), sequence (Q05397 2-1052 limits assumed): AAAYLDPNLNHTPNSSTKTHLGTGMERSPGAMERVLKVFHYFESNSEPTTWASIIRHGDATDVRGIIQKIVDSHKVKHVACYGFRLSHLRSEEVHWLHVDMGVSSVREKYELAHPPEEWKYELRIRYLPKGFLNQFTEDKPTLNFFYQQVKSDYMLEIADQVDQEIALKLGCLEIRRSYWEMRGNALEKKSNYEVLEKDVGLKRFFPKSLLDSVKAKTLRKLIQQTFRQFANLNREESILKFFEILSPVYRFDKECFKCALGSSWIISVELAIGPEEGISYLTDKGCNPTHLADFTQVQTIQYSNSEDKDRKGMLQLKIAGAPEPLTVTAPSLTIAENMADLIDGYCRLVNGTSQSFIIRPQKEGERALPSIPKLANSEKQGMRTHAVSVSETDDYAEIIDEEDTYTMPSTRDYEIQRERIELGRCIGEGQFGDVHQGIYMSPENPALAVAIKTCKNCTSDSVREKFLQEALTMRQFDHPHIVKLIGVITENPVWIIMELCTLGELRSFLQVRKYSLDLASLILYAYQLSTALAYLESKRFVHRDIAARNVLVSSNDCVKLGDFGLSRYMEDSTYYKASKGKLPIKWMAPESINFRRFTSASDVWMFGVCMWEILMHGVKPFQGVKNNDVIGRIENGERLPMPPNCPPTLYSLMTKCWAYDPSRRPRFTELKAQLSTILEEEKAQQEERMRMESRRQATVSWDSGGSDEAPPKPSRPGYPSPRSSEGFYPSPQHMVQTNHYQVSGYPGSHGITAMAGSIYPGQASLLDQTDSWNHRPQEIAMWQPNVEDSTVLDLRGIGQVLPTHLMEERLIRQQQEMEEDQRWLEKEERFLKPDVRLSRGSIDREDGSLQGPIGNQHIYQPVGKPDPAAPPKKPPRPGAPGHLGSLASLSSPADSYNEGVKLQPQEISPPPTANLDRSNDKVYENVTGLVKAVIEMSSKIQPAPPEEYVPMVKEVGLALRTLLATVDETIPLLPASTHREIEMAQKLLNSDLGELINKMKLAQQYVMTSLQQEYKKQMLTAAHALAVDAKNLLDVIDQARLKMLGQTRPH

[14] = system: LNCaP; assay: Inhibition of Akt/mTOR pathway in human LNCAP cells assessed as reduction in PRAS40 phosphorylation at T246 residue at 50 uM incubated for 48 hrs by chemiluminescence reagent based autoradiography; format: cell-based
[15] = system: LNCaP; assay: Inhibition of Akt/mTOR pathway in human LNCAP cells assessed as reduction in p70S6 kinase phosphorylation at T421/S424 residues at 50 uM incubated for 48 hrs by chemiluminescence reagent based autoradiography; format: cell-based
[16] = target: Proto-oncogene tyrosine-protein kinase Src (Homo sapiens) (UniProt P12931); assay: Inhibition of c-Src phosphorylation at Y419 residue in human LNCAP cells at 50 uM incubated for 48 hrs by chemiluminescence reagent based autoradiography; format: cell-based
Proto-oncogene tyrosine-protein kinase Src (Homo sapiens), sequence (P12931 2-536 limits assumed): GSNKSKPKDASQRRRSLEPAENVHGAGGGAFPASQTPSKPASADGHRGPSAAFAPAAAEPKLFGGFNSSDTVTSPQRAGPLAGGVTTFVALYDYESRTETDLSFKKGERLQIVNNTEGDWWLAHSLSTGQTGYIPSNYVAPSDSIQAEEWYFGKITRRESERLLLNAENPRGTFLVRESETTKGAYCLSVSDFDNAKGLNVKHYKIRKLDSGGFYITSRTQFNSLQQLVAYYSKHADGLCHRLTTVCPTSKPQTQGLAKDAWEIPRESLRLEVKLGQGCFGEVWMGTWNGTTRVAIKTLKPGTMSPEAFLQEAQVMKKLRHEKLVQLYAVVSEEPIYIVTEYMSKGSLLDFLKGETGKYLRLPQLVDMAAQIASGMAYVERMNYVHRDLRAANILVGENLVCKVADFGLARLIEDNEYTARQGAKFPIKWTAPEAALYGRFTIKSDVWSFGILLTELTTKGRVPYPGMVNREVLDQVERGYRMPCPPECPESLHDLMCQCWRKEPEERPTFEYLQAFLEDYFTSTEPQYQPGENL

[17] = system: LNCaP; assay: Effect on total HSP60 level in human LNCAP cells at 50 uM incubated for 48 hrs by chemiluminescence reagent based autoradiography; format: ADME, cell-based

Question: COc1c2c(c(C)c3c1C(=O)OC3)O[C@@]1(C)C[C@]3(O)OC[C@]4(C)O[C@@]5(OC)C[C@@H](OC(C)=O)[C@](C)([C@H]1C2)[C@]43O5 was tested. Which IC50 [1] did it give?
Answer: Its IC50 is 20 µM.

Question: What about the IC50 [2] of the same molecule?
Answer: The IC50 was 64 µM.

Question: What about the IC50 [3] of the same molecule?
Answer: Its IC50 is 53 µM.

Question: And the inhibition [4]?
Answer: The inhibition was “Dose-dependent effect”.

Question: What about the inhibition [5] of the same molecule?
Answer: The inhibition was “Active”.

Question: What about the Activity [6] of the same molecule?
Answer: Its Activity is “Active”.

Question: COc1c2c(c(C)c3c1C(=O)OC3)O[C@@]1(C)C[C@]3(O)OC[C@]4(C)O[C@@]5(OC)CC[C@](C)([C@H]1C2)[C@]43O5 was tested. Which IC50 [1] did it give?
Answer: The IC50 was 27 µM.

Question: What about the IC50 [2] of the same molecule?
Answer: Its IC50 is 73 µM.

Question: What about the IC50 [3] of the same molecule?
Answer: The IC50 was 73 µM.

Question: And the inhibition [7]?
Answer: The inhibition was “Active”.

Question: And the inhibition [8]?
Answer: The inhibition was “Active”.

Question: And the inhibition [9]?
Answer: Its inhibition is “Active”.

Question: What about the inhibition [10] of the same molecule?
Answer: The inhibition was “Active”.

Question: What about the inhibition [11] of the same molecule?
Answer: Its inhibition is “Active”.

Question: What about the inhibition [12] of the same molecule?
Answer: Its inhibition is “Active”.

Question: What about the inhibition [13] of the same molecule?
Answer: The inhibition was “Active”.

Question: And the inhibition [14]?
Answer: Its inhibition is “Active”.

Question: And the inhibition [15]?
Answer: The inhibition was “Active”.

Question: What about the inhibition [16] of the same molecule?
Answer: Its inhibition is “Active”.

Question: And the Activity [17]?
Answer: Its Activity is “Toxic”.

Question: And the Activity [6]?
Answer: Its Activity is “Active”.
